Results published in patent publication US20140309309A1, “COSMETIC FORMULATION” (EVONIK INDUSTRIES AG, priority 2011, published 2014).

Assays:
healthy female subjects [1] = assay: Human study, face: skin roughness (Primos Pico, Sa parameter); type: in vivo; conditions: 0.2% by mass in formulation, twice daily, entire study period of twelve weeks (FIG. 2)
Source text: (§1) The panel comprises 60 healthy female subjects of Caucasian origin up to 70 years of age who were in their postmenopausal phase (average age 59.4 years). The formulations were applied on the face. Vehicle formulation (vehicle) and N-hexanoyl-phytosphingosine formulation (N-hexanoyl-phytosphingosine) was each applied by 30 subjects. In the case of the non-inventive vehicle formulation, which serves as comparison formulation, the 0.2% by mass of N-hexanoyl-phytosphingosine were replaced by an additional 0.2% by mass of water.
Application was carried out twice daily, morning and evening, over a period of twelve weeks. Measurement points were before the start of application (T0), after four weeks (T4), after eight weeks (T8) and after twelve weeks (T12). A period over four weeks is accordingly referred to as T4-T0. […]
The roughness of the skin was determined by means of Primos Pico optical 3D-Sensor (GF Messtechnik GmbH). […] Bands are projected onto the surface of the skin and the projection is recorded under a defined triangulation angle by means of a CCD camera. The topography of the measured object is calculated by the position of the bands and the grey scales of all registered image points. […] The average roughness Sa was determined; this reflects the arithmetic mean of the skin roughness in the recorded image.

healthy female subjects [2] = assay: Human study, face: sagging of the skin assessed by a dermatologist (4-point scale); type: in vivo; conditions: 0.2% by mass in formulation with 1,2-pentanediol, twice daily, twelve weeks, all time points, compared with vehicle group (FIG. 1)
Source text: as §1
(§2) Application was carried out twice daily, morning and evening, over a period of twelve weeks. Measurement points were before the start of application (T0), after four weeks (T4), after eight weeks (T8) and after twelve weeks (T12). A period over four weeks is accordingly referred to as T4-T0.
(§3) The measurements were performed in a temperature- and humidity-controlled room (24±2° C., 50±10 relative humidity). The subjects were requested to apply no product up to twelve hours prior to measurement and to wash their face three hours before measurement.
The sagging of the skin was assessed by a dermatologist by means of visual and tactile evaluation by reference to a 4-point scale (0=absent, 1=minimum, 2=moderate, 3=maximum).

human dermal fibroblasts = assay: Gene expression in human dermal fibroblasts (Affymetrix GeneChip); type: cell-based; conditions: 5 μM, 24 h, vs vehicle-treated fibroblasts
Source text: The present example investigates the effect of N-hexanoyl-phytosphingosine on the gene expression in fibroblasts (normal human dermal fibroblasts, NHDFs).
For this, firstly primary human dermal fibroblasts (human dermal fibroblasts derived from neonatal skin, HDF), cryopreserved, Lifeline Cell Technology, acquired via CellSystems® Biotechnologie Vertrieb GmbH, in Minimum Essential Medium (MEM) with Earle's salts (EMEM) (PAA Laboratories GmbH) were cultivated with the addition of 10% foetal bovine serum (FBS, Invitrogen Ltd, UK), 1% nonessential amino acids (NEAA) (100×) (PAA Laboratories GmbH), 1% L-glutamine (100×) (Invitrogen Ltd) and 1% penicillin/streptomycin (5000 U/mL penicillin and 5000 μg/mL streptomycin/mL, (Invitrogen Ltd) at 37° C. and 5% CO2. For gene expression studies, the cells were sown out in 6-well plates and cultivated to the point of subconfluence (maximum 60%).
Then, the medium was removed from the cells and replaced by fresh medium containing N-hexanoyl-phytosphingosine. The vehicle used was methanol, the end concentration of the vehicle in the medium being 0.05% (v/v). The end concentration of N-hexanoyl-phytosphingosine in the medium was 5 μM. As the control, the cultivation was carried out without active ingredient, only with medium (vehicle). All of the cultivations were performed twice (with cells from two different donors).
After cultivation for 24 hours, the medium was removed and the cells were lysed by adding RNeasy Lysis Buffer (Qiagen). Isolation of whole-RNA was carried out in accordance with manufacturer's instructions. Combined, the whole-RNA was isolated by means of RNeasy Mini Kit (Qiagen). The RNA concentration was determined by spectrophotometry using a SmartSpec Plus (Biorad). Purity and integrity of the RNA were determined using Agilent 2100 Bioanalyzer with a 6000 Nano LabChip reagent set (Agilent Technologies, Inc.). RNA samples were stored at −80° C. until further processing.
Analysis of the gene expression was carried out using Affymetrix HGU133 plus 2.0 GeneChips (Affymetrix), with 2 μg of whole-RNA being used. For this, the RNA of the two different donor cultures was pooled. Expression analyses including standard data evaluation were carried out in accordance with manufacturer's instructions (AFFYMETRIX, INC.).

healthy female subjects [3] = assay: Human study, upper arm: echogenicity of the skin (DermaScan C); type: in vivo; conditions: twice daily
Source text: The panel consisted of healthy female subjects of Caucasian origin up to 70 years old who were in their postmenopausal phase. The echogenicity of the skin on the upper arms of the subjects was at most 60% (DermaScan® C, B-scan mode). The formulations were applied to the upper arms. Vehicle formulation (vehicle) and formulation with different concentrations of N-hexanoyl-phytosphingosine (N-hexanoyl-phytosphingosine) was applied by in each case 16 subjects. In the non-inventive vehicle formulation, which serves as comparison formulation, the corresponding % by mass of N-hexanoyl-phytosphingosine were replaced by additional % by mass of water.
as §2
The measurements were performed in a temperature- and humidity-controlled room (24±2° C., 50±10 relative humidity). The subjects were asked to apply no product up to twelve hours before measurement and to no longer wash their arms from three hours before measurement.
The skin slackening was measured by measuring the echogenicity of the skin by means of a DermaScan® C ultrasound scanner. The echogenicity was recorded in the B-scan mode and given in %. […]

[4] = Percutaneous absorption study on a pig skin model; type: in vitro ADME; conditions: 0.2% in formulation in combination with 1.80% 1,2-pentanediol vs corresponding formulations without 1,2-pentanediol (FIG. 4)
Protocol: The increase in the skin penetration of N-hexanoyl-phytosphingosine from a cosmetic formulation as a result of adding 1,2-pentanediol was shown in the course of a percutaneous absorption study on a pig skin model. In practice, the study was performed in accordance with a current protocol, as described for example in S. Richert, A. Schrader, K. Schrader, Int. J. Cosmet. Sci. 2003, 25, 5-13.

[5] = test system: differentiated human adipocytes; assay: Gene expression in differentiated human adipocytes (Affymetrix GeneChip); type: cell-based; conditions: 2.5 μM, 6 h, vs vehicle-treated adipocytes
Protocol: This example investigated the effect of N-hexanoyl-phytosphingosine on the gene expression in differentiated human adipocytes.
Cells, media and reagents were acquired from PromoCell. The cultivation was carried out in accordance with the protocol from PromoCell. Unless stated otherwise, the cells were cultivated at 37° C. and 5% CO2. Firstly, proliferating subcutaneous primary human white preadipocytes (HWP) from two different donors were cultivated in a special preadipocyte growth medium until complete confluence was reached. The medium was then exchanged for a special differential medium, and the cells were incubated with this medium for 72 hours. The medium was then exchanged for a further medium (Adipocyte Nutrition Medium) in order to conclude the differentiation process. The cells were further incubated with this medium for twelve days, with media exchange being carried out every three days. Ultimately, the medium was removed from the cells and replaced by fresh medium containing N-hexanoyl-phytosphingosine. The vehicle used was methanol, the end concentration of the vehicle in the medium being 0.05% (v/v). End concentration of N-hexanoyl-phytosphingosine in the medium was 2.5 μM. As the control, the cultivation was carried out without active ingredient, only with medium (vehicle). All of the cultivations were performed twice (with cells from two different donors).
After cultivation for six hours, the medium was removed and the cells were lysed by adding RNeasy Lysis Buffer (Qiagen). Isolation of whole-RNA was carried out in accordance with manufacturer's instructions. Combined, the whole-RNA was isolated by means of RNeasy Mini Kit (Qiagen). The RNA concentration was determined by spectrophotometry using a SmartSpec Plus (Biorad). Purity and integrity of the RNA were determined using Agilent 2100 Bioanalyzer with a 6000 Nano LabChip reagent set (Agilent Technologies, Inc.). RNA samples were stored at −80° C. until further processing.
Analysis of the gene expression was carried out using Affymetrix HGU133 plus 2.0 GeneChips (Affymetrix), with 2 μg of whole-RNA being used. For this, the RNA of the two different donor cultures was pooled. Expression analyses including standard data evaluation were carried out in accordance with manufacturer's instructions (Affymetrix.).

healthy female subjects [6] = assay: Human study, face: echogenicity of the skin (DermaScan C); type: in vivo; conditions: 0.2% by mass in formulation, twice daily
Source text: as §1, §2, §3
The echogenicity of the skin was measured using a DermaScan® C ultrasound scanner. The instrument is based on the physical principle of the ultrasound emission of a transducer. […] Their intensity is detected by a microprocessor. […] The echogenicity was recorded in the B-scan mode and given in %. […]

In the case of `CCCCCCCCCCCCCC[C@@H](O)[C@@H](O)[C@H](CO)NC(=O)CCCCC` [N-hexanoyl-phytosphingosine], the “change in skin roughness (Sa parameter)” value (healthy female subjects [1]) is reported as “steadily further reduced”, the “decrease in sagging of the skin” value (healthy female subjects [2]) is reported as “more marked” and the “Regulation of the gene expression by N-hexanoyl-phytosphingosine: ACAN (aggrecan)” value (human dermal fibroblasts) is reported as “+1.7 fold”. For the same compound, the “Regulation of the gene expression by N-hexanoyl-phytosphingosine: COL10A1 (collagen, type X, alpha 1)” value (human dermal fibroblasts) was “+3.2 fold”, the “Regulation of the gene expression by N-hexanoyl-phytosphingosine: COL11A1 (collagen, type XI, alpha 1)” value (human dermal fibroblasts) was “+2.2 fold” and the “Regulation of the gene expression by N-hexanoyl-phytosphingosine: FGF18 (fibroblast growth factor 18)” value (human dermal fibroblasts) was “+2.2 fold”. The “Regulation of the gene expression by N-hexanoyl-phytosphingosine: HAPLN1 (hyaluronan and proteoglycan link protein)” value (human dermal fibroblasts) was “+4.1 fold”, the “Regulation of the gene expression by N-hexanoyl-phytosphingosine: IGF1 (insulin-like growth factor 1)” value (human dermal fibroblasts) was “+2.0 fold” and the “Regulation of the gene expression by N-hexanoyl-phytosphingosine: ITGA2 (integrin alpha-2)” value (human dermal fibroblasts) was “+1.6 fold”. For the same compound, the “Regulation of the gene expression by N-hexanoyl-phytosphingosine: LEP (leptin)” value (human dermal fibroblasts) was “+2.2 fold”, the “Regulation of the gene expression by N-hexanoyl-phytosphingosine: MMP3 (matrix metallopeptidase 3)” value (human dermal fibroblasts) was −1.4 fold and the “echogenicity of the skin on the upper arm compared with the starting value” (healthy female subjects [3]; 0.02% in formulation, increase only measurable after a treatment time of eight weeks (FIG. 5)) was “less marked”. The “echogenicity of the skin on the upper arm compared with the starting value” (healthy female subjects [3]; 0.05% in formulation, four, eight and twelve weeks (FIG. 5)) was “increase in the echogenicity of the skin”, the “bioavailability (skin penetration) of N-hexanoyl-phytosphingosine from formulation” value [4] was “increase in bioavailability” and the “Regulation of the gene expression by N-hexanoyl-phytosphingosine: ACACA (acetyl-coenzyme A carboxylase alpha)” value [5] was “+1.5 fold”. For the same compound, the “Regulation of the gene expression by N-hexanoyl-phytosphingosine: ADIPOQ (adiponectin)” value [5] was “+2.2 fold”, the “Regulation of the gene expression by N-hexanoyl-phytosphingosine: CEBPB (CAAT/enhancer binding protein (C/EBP), beta)” value [5] was “+2.1 fold” and the “Regulation of the gene expression by N-hexanoyl-phytosphingosine: FAS (fatty acid synthase)” value [5] was “+1.4 fold”. For the same compound, the “Regulation of the gene expression by N-hexanoyl-phytosphingosine: LEP (leptin)” value [5] was “+2.7 fold”, the “Regulation of the gene expression by N-hexanoyl-phytosphingosine: LEPR (leptin receptor)” value [5] was “+4.1 fold” and the “Regulation of the gene expression by N-hexanoyl-phytosphingosine: LIPC (lipase)” value [5] was −2.5 fold. For the same compound, the “Regulation of the gene expression by N-hexanoyl-phytosphingosine: PPARD (peroxisome proliferator activated receptor, delta)” value [5] was “+1.7 fold”, the “Regulation of the gene expression by N-hexanoyl-phytosphingosine: PPARG (peroxisome proliferator activated receptor, gamma)” value [5] was “+2.5 fold” and the “Regulation of the gene expression by N-hexanoyl-phytosphingosine: THBS1 (thrombospondin 1)” value [5] was “+5.9 fold”. For the same compound, the “change in the echogenicity of the skin” value (healthy female subjects [6]; after four weeks (T4-T0) (FIG. 3)) was “slight decrease in echogenicity” and the “change in the echogenicity of the skin” value (healthy female subjects [6]; as the study progressed (to T12) (FIG. 3)) was “steadily improved”.
